Laboratory results from PMC7793531 (International Journal of Molecular Sciences, 2020).
Starred links: 1 amine or outer side, 2 acyl side, 3 side chain; linkers in the order of their positions; H or OH if unused. Non-standard residues stand in square brackets, D forms with d. Residues, ends and D or L forms follow the SMILES beside them. Groups on a side chain read outwards from the residue. ξ: configuration not given here. *: point of attachment. Oic(3aξ,7aξ) = O=C(O)[C@@H]1CC2CCCCC2N1; X1 = N=C(N)NCCCC[C@H](N)CN*; Dab = NCC[C@H](N)C(=O)O; CO = O=C([*:1])[*:2]

Columns and labels:
[1] = In vitro enzymatic stability in human blood serum (LC-SWATH-MS); type: in vitro ADME; details: human blood serum (pooled from four healthy persons), 37 °C, after 96 h, read-out: compound still intact
Protocol: Rapid renal clearance and enzymatic degradation are classified as most important disadvantages of peptides as drugs. Covalent linkage to plasma proteins or chemical modifications, including amide bond modifications, might improve their half-lives. We performed proteolytic stability studies in human blood serum to investigate whether the introduction of urea bonds affected the half-lives of compounds from each of synthesized group of hybrids. Compounds 3, 6 and 7 were incubated with human serum at 37 °C. Samples were taken at different time intervals and analyzed using LC-SWATH-MS [88, 89, 90]. […] Hybrids 6 and 7 were stable toward enzymatic degradation, with 50% of each compound still being intact after 96 h (Figure 5). […] Overall, it can be concluded that the substitution of an amide bond with a urea bond has a positive effect on the proteolytic stability of the examined inhibitors.
The study was conducted in full accordance with ethical principles in accordance with the ICH E6 (R2) Guideline for Good Clinical Practice and the Code of Good Customs in Science developed by the Polish Academy of Sciences. Signed consent for using serum was obtained from volunteers. The Rector’s Commission for Ethics of Scientific Research with Human Participation, University of Warsaw, Warsaw, Poland gave the ethical approval (approval number 51/2020). Human blood from four healthy persons was directly drawn into evacuated tubes and left undisturbed at room temperature for 1 h to clot. Tubes were centrifuged at 2500× g for 10 min to prevent possible platelet activation. Serum was pipetted out of the blood collection tubes, pooled and collected in microtubes.
A degradation assay was adapted from a method described previously. Human blood serum was preactivated in Eppendorf ThermoMixer® Comfort (Hamburg, Germany) at 37 °C for 20 min (350 rpm). Next, 20 μL of aqueous urea–peptide hybrid stock solution was added to give ∼750 μg/mL final compound concentration, and incubation was continued. At selected time intervals, 50 μL of the mixture was collected and quenched by adding 200 μL of ACN:H2O:FA mixture (89:10:1, v:v:v). The obtained suspension was vortexed for 1 min (3000 min^−1) and centrifuged for 10 min in 4 °C (11,000× g). 100 μL of supernatant was collected and lyophilized. The samples reconstituted in 1 mL of 10 mM ammonium formate with 0.1% FA were subjected to LC-MS. Relative concentration at time intervals was calculated using peak area of either individual or most intense fragment of compound of interest. Analyst software version 1.7.1 was used for data acquisition, Peak View 2.2 and MultiQuant 2.1 (Sciex, ON) were used for data processing. Detailed analytical data can be found in Supplementary Materials (Figures S17–S45). […]

VEGF-A165/NRP-1 complex = target: T1, VEGF-A165/NRP-1 complex (Homo sapiens, UniProt O14786); experiment: Competitive ELISA-like assay, inhibition of bt-VEGF-A165 binding to immobilized NRP-1; details: recombinant human NRP-1, bt-VEGF-A165, chemiluminescence; read-out: IC50, VEGF-A165/NRP-1 complex inhibitory effect
T1 construct: purchased R&D Systems
T1 sequence (O14786 22-641 limits assumed): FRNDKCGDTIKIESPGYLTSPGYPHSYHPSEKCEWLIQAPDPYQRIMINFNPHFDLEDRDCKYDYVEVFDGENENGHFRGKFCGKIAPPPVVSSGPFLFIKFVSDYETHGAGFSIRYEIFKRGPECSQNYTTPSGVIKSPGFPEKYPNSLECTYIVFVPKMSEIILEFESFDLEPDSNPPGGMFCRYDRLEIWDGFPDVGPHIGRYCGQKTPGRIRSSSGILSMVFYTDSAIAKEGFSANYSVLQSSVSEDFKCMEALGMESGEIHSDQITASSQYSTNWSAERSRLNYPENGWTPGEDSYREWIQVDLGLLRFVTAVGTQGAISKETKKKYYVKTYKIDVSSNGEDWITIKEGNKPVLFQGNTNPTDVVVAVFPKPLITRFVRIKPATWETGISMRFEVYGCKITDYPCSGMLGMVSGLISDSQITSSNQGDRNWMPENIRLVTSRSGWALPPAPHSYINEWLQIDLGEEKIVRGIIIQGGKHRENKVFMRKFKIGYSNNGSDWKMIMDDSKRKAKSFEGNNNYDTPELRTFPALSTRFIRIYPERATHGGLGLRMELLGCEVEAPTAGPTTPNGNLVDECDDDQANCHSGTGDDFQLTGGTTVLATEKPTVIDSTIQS
Protocol: Inhibitory activity of urea–peptide hybrids against VEGF-A165/NRP-1 complex formation was assessed with a screening ELISA-like assay. NRP-1 was immobilized on microplate wells by simple adsorption and urea–peptide hybrids competed for NRP-1 with biotinylated VEGF-A165 (bt-VEGF-A165). The amount of receptor bound bt-VEGF-A165 was visualized by its interaction with the streptavidin–horseradish peroxidase conjugate (strep-HRP) and the chemiluminescent substrate. The first analyzed group of compounds were analogues 1–3 with the urea bond between L1 and L2. […] The best hybrid in this group was compound 3, which had Lys^U (gDab) branching (where “g” corresponds to guanidinium group), but its IC50 value decreased only 2-fold. Therefore, we assume that no additional interactions between urea bond and the surface of the protein occurred. […] In the case of urea–peptide hybrids, the urea bond might be capable of forming additional hydrogen bonds with protein residues on the surface of NRP-1. The affinity of compounds may conceivably be affected by the colocation of the urea bond and the free amino group of hArg in the branching. In addition, for compounds 4–6, we can observe that decreasing the distance between the free amino group in the main chain and the urea bond in the branching has a positive effect on compounds’ affinity for NRP-1.
This method was previously described for NRP-1 [44, 45, 46]. Briefly, overnight coating at 4 °C of the flat bottom surface of a 96-well plate with 100 μL (200 ng/well) recombinant human NRP-1, NRP-2, VEGFR-1 or VEGFR-2 was followed by non-specific interactions blocking using 0.5% bovine serum albumin (BSA) in PBS. Next, 50 µL of urea–peptide hybrid in PBS and 50 µL (400 ng/mL) of human (bt)-VEGF-A165 in PBS containing 4 µg/mL of heparin were added respectively. Plates were incubated for 2 h at RT, and then washed and treated with streptavidin-horseradish peroxidase conjugate in PBS (1:8000). Next, 100 µL chemiluminescent substrate was added, and luminescence was quantified using Tecan Infinite F200Pro microplate reader (Männedorf, Switzerland). In a positive control (P) only (bt)-VEGF-A165 was present in wells. Not coated by receptor wells were treated as a negative control (N). Percentages of inhibition were calculated by the following formula:100% − [[(S − N)/(P − N)]∙100%](1) where S is the signal intensity measured in wells with urea–peptide hybrid. The IC50 of each urea–peptide hybrid was calculated using the nonlinear regression function with GraphPad Prism Version-5.01 (GraphPad Software, San Diego, CA, USA). Data are presented as log (inhibitor) versus normalized response-variable slope (Figure S16). Data are the means ± SEMs of two or three independent experiments, each performed in triplicate.

Work on N=C(N)NCCCC[C@H](N)CNC(=O)NCC[C@H](N)C(=O)N[C@@H](CCN)C(=O)N1C2CCCCC2C[C@H]1C(=O)N[C@@H](CCCNC(=N)N)C(=O)O (stereo partly drawn) [Compound 6, H-Dab(hArg^U)Dab-Oic-Arg-OH] (H-[Dab]([CO-X1])[Dab][Oic(3aξ,7aξ)]R-OH) yielded a remaining at 96 h [1] of 50% and an IC50 (VEGF-A165/NRP-1 complex) of 190 nM.
